Results on 2 molecules are retold here after patent publication US5650404A, “Therapeutic composition for pancreatitis” (Senju Pharmaceutical Co., Ltd., priority 1994, dated 1997).

Read-outs that look alike come from different tables or passages of the source. Some results are limits rather than exact numbers.

For series [1], the system named is ethionine-induced pancreatitis (serum amylase). The series can be described thus: Effect on serum amylase elevation in ethionine-induced severe pancreatitis. The class given is in vivo, female BALB/c mice. Conditions: for serum amylase level, 0 Hr: 0 Hr (start of ethionine-supplemented food, before dosing at 12 h); for serum amylase level, 0 Hr / serum amylase level, 24 Hr / serum amylase level, 48 Hr: p.o., EPC-K 141 mg/10 ml/kg, camostat 100 mg/10 ml/kg, mean ± S.E.; for serum amylase level, 24 Hr: 24 h after beginning of ethionine-supplemented food; for serum amylase level, 48 Hr: 48 h after beginning of ethionine-supplemented food, *1 (EPC-K): p < 0.01 vs distilled water. How it is done:
The therapeutic efficacy of the compound was tested in ethionine-induced pancreatitis which is a model of severe human pancreatitis. The efficacy evaluation was based on the degree of inhibition of the release of amylase into blood which is an indicator of pancreatitis.
(1) Investigational Substance
L-Ascorbyl DL-α-tocopheryl phosphate potassium (briefly, EPC-K) 141 mg/10 ml/kg, p.o.
Camostat monomethanesulfonate (Ono Pharmaceutical) 100 mg/10 ml/kg, p.o.
Animals used: Thirty female BALB/c mice weighing about 18 g as purchased from Japan SLC were used in this experiment. The mice were accommodated in an animal room controlled at 24°±4° C. and 55±15% R. H. and while the animals in the ethionine-induced pancreatitis groups were given low-choline, 0.54 ethionine-supplemented food (prepared by SLC) ad libitum, the animals in the untreated control group were given Labo MR Stock (tradename) (Nihon Nosan Kogyo) ad libitum. Water was freely available for animals in the ethionine pancreatitis groups and the untreated group. The mice were deprived of food 12 hours before commencement of feeding.
Method: Each test substance was administered 12 hours after the beginning of intake of ethionine-supplemented food. Blood sampling was made 24 and 48 hours after the beginning of intake of ethionine-supplemented food and the serum amylase levels were determined.

The next series can be described thus: LD50 (toxicity). Conditions: rat, in vivo, rats.

As to `CN(C)C(=O)COC(=O)Cc1ccc(OC(=O)c2ccc(NC(=N)N)cc2)cc1` [Camostat monomethanesulfonate], in series [1], the “serum amylase level, 0 Hr” value turned out to be 13978 ± 1012 mU/ml; the “serum amylase level, 24 Hr” value amounted to 12628 ± 1542 mU/ml; the “serum amylase level, 48 Hr” value was 36288 ± 13921 mU/ml. In addition, the “inhibition of serum amylase elevation (in words)” value in series [1] (48 h, compared with distilled water group) is on record as “no inhibitory effect on amylase elevation”.

With `Cc1c(C)c2c(c(C)c1OP(=O)(O)OC1=C(O)[C@@H]([C@@H](O)CO)OC1=O)CCC(C)(CCCC(C)CCCC(C)CCCC(C)C)O2` (mixture of isomers) [EPC-K, L-Ascorbyl DL-α-tocopheryl phosphate potassium], the LD50 in the series “LD50 (toxicity)” (iv, i.v., read-out: LD50 i.v.) is at least 100 mg/kg. In addition, in “LD50 (toxicity)” (po, p.o., read-out: LD50 p.o.), the LD50 was at least 5000 mg/kg. Also, in series [1], the “serum amylase level, 0 Hr” value was 14573 ± 3132 mU/ml; the “serum amylase level, 24 Hr” value was found to be 12926 ± 2217 mU/ml; the “serum amylase level, 48 Hr” value worked out at 16257 ± 9763 mU/ml.
